Results on four compounds are retold here after paper PMC3172300, “Modulation of Catalytic Activity in Multi-Domain Protein Tyrosine Phosphatases” (PLoS ONE, 2011).

Read-outs that look alike come from different tables or passages of the source. Square brackets hold non-standard residues; d marks the D form. Ends that are not written are not given here. Peptide text beside a SMILES is read from it. pY = N[C@@H](Cc1ccc(OP(=O)(O)O)cc1)C(=O)O

The target of one test is T1, DLAR D2 (Drosophila melanogaster, UniProt P16621).
T1 construct: DLAR 1728-2029; His tag (pET-15b or pET-22b); made in house; host or cells: E. coli BL21(DE3)
T1 sequence (P16621 1728-2029): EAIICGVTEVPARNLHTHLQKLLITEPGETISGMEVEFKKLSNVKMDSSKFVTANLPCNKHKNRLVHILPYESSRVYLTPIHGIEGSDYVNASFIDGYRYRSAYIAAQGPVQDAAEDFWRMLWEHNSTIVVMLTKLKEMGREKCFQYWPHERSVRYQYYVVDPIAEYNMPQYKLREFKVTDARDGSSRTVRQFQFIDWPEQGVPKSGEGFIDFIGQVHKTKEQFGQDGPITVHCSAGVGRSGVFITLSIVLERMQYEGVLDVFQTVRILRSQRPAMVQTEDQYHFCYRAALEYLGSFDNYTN
In words: Peptide preference of the DLAR D2 domain from ratios of kcat/Km (D1D2 vs D1). As to conditions: order of peptide substrates, from comparison of kcat/Km of D1D2 with D1. It is filed as biochemical. As for the experimental part: (§1) Phosphatase activity of the recombinant PTP domains was determined by using para-Nitrophenylphosphate (pNPP), a small molecule generic substrate, as well as phosphotyrosine containing peptides. The pNPP assay was performed as reported previously, with a modification in the buffer composition (25 mM Citrate, Glycine and HEPES (CGH), pH 6.5, 100 mM NaCl and 2 mM DTT). Phosphatase activity with the phosphotyrosine peptides was ascertained by the malachite green reaction as described for PTPs previously. Briefly, the reaction mixture comprised of 0.01 µM protein incubated with increasing concentrations of different peptides in 25 mM citrate buffer pH 6.0, 100 mM NaCl and 2 mM DTT for 15 min at 25°C. The reaction was stopped by the addition of the Biomol Green reagent (Enzo Life Sciences) and the colour developed after 20 min was quantified at 650 nm. For all the assays, kinetic constants for the steady state catalysis were obtained by fitting the reaction curves to the Michaelis-Menten equation using the nonlinear regression module of Sigma plot software (Systat Software, Inc.).
The difference between the most and least preferred substrate in the case of DLAR D1D2 was much less (∼16.0×10^4 sec^−1 M^−1 between Cuticle and Myospheroid peptides) when compared to DLAR D1 alone (∼130.0×10^4 sec^−1 M^−1 between Insulin Receptor and Abelson peptides). […] A more comprehensive study of this activation mechanism is being reported elsewhere.

Another test has as its target T2, DLAR D1 D2HSS (Drosophila melanogaster, UniProt P16621, C1961S).
T2 construct: DLAR 1448-2029; His tag (pET-15b or pET-22b); made in house; host or cells: E. coli BL21(DE3)
The format is biochemical. As to conditions: 0.01 µM protein; for Vmax: 25 mM citrate buffer pH 6.0, 100 mM NaCl, 2 mM DTT, 15 min at 25°C, Biomol Green, 650 nm, Michaelis-Menten fit; for Kcat / Kcat/Km / Km: 25 mM citrate pH 6.0, 15 min at 25°C, malachite green.
Source text: (§2) Substrates of PTPs characterized thus far include the activation loop segments of various kinases and regulatory loops of other signaling proteins. Suitably designed peptide substrates mimic the physiologically relevant substrates of PTPs. In the present study, peptide substrates were designed for DLAR for which more information was available on its interacting partners. […] The five peptides were chosen based on their distinct charge distributions around the central phosphotyrosine residue. The phosphorylated as well as non-phosphorylated peptides were obtained from GL Bioscience, China. The peptides were >95% pure and were used after a single round of desalting using a Sephadex G25 column (GE Healthcare). The concentration of the peptide samples for biochemical studies was ascertained by UV absorption at 268 nm for the pY residue.
as §1

The next test concerns the target T3, PTP99A D1 (Drosophila melanogaster, UniProt P35832).
T3 sequence (P35832 450-756): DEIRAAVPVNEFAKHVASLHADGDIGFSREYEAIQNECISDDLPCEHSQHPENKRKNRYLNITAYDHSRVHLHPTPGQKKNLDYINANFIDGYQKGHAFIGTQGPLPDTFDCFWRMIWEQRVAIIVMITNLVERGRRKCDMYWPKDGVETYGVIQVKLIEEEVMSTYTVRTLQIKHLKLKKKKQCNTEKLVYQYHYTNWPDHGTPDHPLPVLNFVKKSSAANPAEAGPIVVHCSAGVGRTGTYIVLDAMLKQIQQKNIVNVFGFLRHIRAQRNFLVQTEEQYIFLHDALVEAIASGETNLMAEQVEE
The experiment in a line: Dephosphorylation of phosphotyrosine peptides (malachite green), PTP99A D1. The conditions noted are these: for Vmax / Kcat / Kcat/Km / Km: 0.01 µM protein; for Vmax: 25 mM citrate buffer pH 6.0, 100 mM NaCl, 2 mM DTT, 15 min at 25°C, Biomol Green, 650 nm, Michaelis-Menten fit; for Kcat / Kcat/Km / Km: 25 mM citrate pH 6.0, 15 min at 25°C, malachite green; for peptide preference: order of peptide substrates.
Source text: as §2, §1

In test [1] the target is T4, DLAR D1 (Drosophila melanogaster, UniProt P16621).
T4 construct: DLAR 1448-1746; His tag (pET-15b or pET-22b); made in house; host or cells: E. coli BL21(DE3)
T4 sequence (P16621 1448-1746): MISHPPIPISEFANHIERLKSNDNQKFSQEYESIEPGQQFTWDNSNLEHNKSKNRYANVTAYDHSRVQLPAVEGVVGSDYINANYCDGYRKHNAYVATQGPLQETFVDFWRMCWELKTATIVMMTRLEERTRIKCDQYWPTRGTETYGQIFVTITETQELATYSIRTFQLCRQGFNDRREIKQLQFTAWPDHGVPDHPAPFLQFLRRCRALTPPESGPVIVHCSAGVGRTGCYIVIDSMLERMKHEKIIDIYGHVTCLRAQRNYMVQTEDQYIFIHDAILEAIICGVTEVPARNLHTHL
The experiment in a line: Dephosphorylation of phosphotyrosine peptides (malachite green), DLAR D1. It is filed as biochemical. The conditions noted are these: for Vmax / Kcat / Kcat/Km / Km: 0.01 µM protein; for Vmax: 25 mM citrate buffer pH 6.0, 100 mM NaCl, 2 mM DTT, 15 min at 25°C, Biomol Green, 650 nm, Michaelis-Menten fit; for Kcat / Kcat/Km / Km: 25 mM citrate pH 6.0, 15 min at 25°C, malachite green; for peptide preference: order of peptide substrates, DLAR D1 domain.
Source text: as §2, §1

The target of test [2] is T4, DLAR D1. In words: Surface Plasmon Resonance peptide binding, DLAR D1. As to conditions: column first binding site, single-site model. As for the experimental part: The binding of phosphotyrosine peptides to the PTP domains was studied by Surface Plasmon Resonance on a Biacore-2000 instrument (BIAcore, AB). All experiments were conducted at 25°C. DLAR PTP domains were immobilized onto carboxylated dextran CM5 chips (BIAcore AB) using the standard amine coupling procedure as recommended by the manufacturer. Binding and kinetic assays were performed in 10 mM HEPES, pH 8.0, 150 mM NaCl, 10 mM DTT and 3 mM EDTA at a flow rate of 5 µL/min. The peptides were used at concentrations ranging from 50–700 µM. Dissociation was initiated by replacing the analyte with buffer. The association and dissociation curves were monitored for 600 sec. Sensograms were analyzed with BIA-evaluation software version 2 (BIAcore AB). Sensograms for DLAR D1D2, DLAR D1HSSD2 and DLAR D1D2HSS were fitted to two-site binding equations. DLAR D1 and DLAR D2 sensograms were fitted using a single-site binding model.

T2 sequence (P16621 1448-2029 C1961S): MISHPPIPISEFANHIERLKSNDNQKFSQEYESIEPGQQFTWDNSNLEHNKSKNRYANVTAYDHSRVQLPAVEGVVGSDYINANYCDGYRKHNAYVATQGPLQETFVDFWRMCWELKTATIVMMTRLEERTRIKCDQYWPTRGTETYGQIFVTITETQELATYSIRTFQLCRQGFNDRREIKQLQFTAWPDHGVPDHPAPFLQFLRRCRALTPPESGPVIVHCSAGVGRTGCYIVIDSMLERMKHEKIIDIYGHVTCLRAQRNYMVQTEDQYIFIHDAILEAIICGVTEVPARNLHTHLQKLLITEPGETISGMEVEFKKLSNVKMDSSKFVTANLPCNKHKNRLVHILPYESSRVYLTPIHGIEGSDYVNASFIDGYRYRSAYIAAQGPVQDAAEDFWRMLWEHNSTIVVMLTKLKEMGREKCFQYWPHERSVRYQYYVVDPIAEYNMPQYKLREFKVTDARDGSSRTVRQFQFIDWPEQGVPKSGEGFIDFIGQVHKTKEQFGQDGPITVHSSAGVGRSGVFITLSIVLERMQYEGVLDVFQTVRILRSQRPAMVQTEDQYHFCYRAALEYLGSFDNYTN

As to “CDDS[pY]FGNKC (cysteine pairing not given here) [Myospheroid peptide, phosphotyrosine peptide CDDSpYFGNKC from PeptideMine server, obtained from GL Bioscience, >95% pure]”, the peptide preference result on DLAR D2 is on record as “Insulin Receptor peptide>Nervous fingers peptide>Cuticle peptide>Myospheroid peptide>Abelson peptide”; at PTP99A D1 (PTP99A D1 domain) it was “Abelson peptide>Cuticle peptide>Nervous fingers peptide>Myospheroid peptide>Insulin receptor peptide”; at DLAR D1 [1], “Insulin receptor peptide>Cuticle peptide>Nervous fingers peptide>Myospheroid peptide>Abelson peptide”. In addition, the maximal velocity (Vmax) at DLAR D1 D2HSS was found to be 3.11 ± 0.12 µmol/min/mg; on PTP99A D1, 2.72 ± 0.13 µmol/min/mg; at DLAR D1 [1] it was 29.58 ± 0.84 µmol/min/mg. Moreover, the Kcat on DLAR D1 D2HSS amounted to 3.7 ± 0.15 s⁻¹; on PTP99A D1 it was 1.81 ± 0.08 s⁻¹; at DLAR D1 [1], 23.66 ± 0.67 s⁻¹. The Kcat/Km at DLAR D1 D2HSS is given as 5.79 ± 0.08 x 10^4 sec^-1M^-1; at PTP99A D1, 20.40 ± 0.59 x 10^2 sec^-1M^-1; on DLAR D1 [1], 30.14 ± 0.06 x 10^4 sec^-1M^-1. Also, the Michaelis-Menten constant (Km) at DLAR D1 D2HSS (read-out: Km) was 63.9 ± 7.99 µM; at PTP99A D1 it was 887 ± 102 µM; at DLAR D1 [1] (read-out: Km), 78.5 ± 6.67 µM.

“VIGD[pY]VCRLCK (cysteine pairing not given here) [Nervous Fingers peptide, phosphotyrosine peptide VIGDpYVCRLCK from PeptideMine server, obtained from GL Bioscience, >95% pure]”: the peptide preference result is recorded as “Insulin Receptor peptide>Nervous fingers peptide>Cuticle peptide>Myospheroid peptide>Abelson peptide” on DLAR D2, “Abelson peptide>Cuticle peptide>Nervous fingers peptide>Myospheroid peptide>Insulin receptor peptide” at PTP99A D1 (PTP99A D1 domain) and “Insulin receptor peptide>Cuticle peptide>Nervous fingers peptide>Myospheroid peptide>Abelson peptide” at DLAR D1 [1]. In addition, the maximal velocity (Vmax) on DLAR D1 D2HSS was determined as 7.9 ± 0.35 µmol/min/mg; at PTP99A D1, 4.42 ± 0.14 µmol/min/mg; on DLAR D1 [1] it was 37.5 ± 1.4 µmol/min/mg. For the same compound, the Kcat on DLAR D1 D2HSS turned out to be 9.42 ± 0.42 s⁻¹; on PTP99A D1 it was 2.94 ± 0.10 s⁻¹; on DLAR D1 [1] it was 30 ± 1.12 s⁻¹. Further, the Kcat/Km at DLAR D1 D2HSS is 7.02 ± 0.07 x 10^4 sec^-1M^-1; at PTP99A D1, 21.61 ± 0.24 x 10^2 sec^-1M^-1; at DLAR D1 [1], 78.51 ± 0.09 x 10^4 sec^-1M^-1. In addition, the results for the Michaelis-Menten constant (Km) at DLAR D1 D2HSS (read-out: Km), at PTP99A D1 and on DLAR D1 [1] (read-out: Km) were 134 ± 14.9 µM, 1360 ± 94.7 µM and 38.2 ± 5.05 µM, respectively.

With “RDDT[pY]TAHAG [Abelson peptide, phosphotyrosine peptide RDDTpYTAHAG from PeptideMine server, obtained from GL Bioscience, >95% pure]”, the values for the peptide preference entry on DLAR D2, on PTP99A D1 (PTP99A D1 domain) and at DLAR D1 [1] were “Insulin Receptor peptide>Nervous fingers peptide>Cuticle peptide>Myospheroid peptide>Abelson peptide”, “Abelson peptide>Cuticle peptide>Nervous fingers peptide>Myospheroid peptide>Insulin receptor peptide” and “Insulin receptor peptide>Cuticle peptide>Nervous fingers peptide>Myospheroid peptide>Abelson peptide”, respectively. Further, the values for the Vmax on DLAR D1 D2HSS, on PTP99A D1 and on DLAR D1 [1] were 0.6 ± 0.01 µmol/min/mg, 0.83 ± 0.05 µmol/min/mg and 4.95 ± 0.59 µmol/min/mg, respectively. Further, the figures for the Kcat on DLAR D1 D2HSS, at PTP99A D1 and on DLAR D1 [1] were 0.72 ± 0.01 s⁻¹, 0.55 ± 0.04 s⁻¹ and 3.96 ± 0.68 s⁻¹, respectively. Further, the figures for the Kcat/Km on DLAR D1 D2HSS, at PTP99A D1 and at DLAR D1 [1] were 5.82 ± 0.07 x 10^4 sec^-1M^-1, 45.19 ± 0.29 x 10^2 sec^-1M^-1 and 21.77 ± 0.32 x 10^4 sec^-1M^-1, respectively. The Km at DLAR D1 D2HSS (read-out: Km) came to 12.4 ± 1.07 µM; on PTP99A D1, 122 ± 26.6 µM; on DLAR D1 [1] (read-out: Km), 18.2 ± 8.98 µM. Besides, the “difference between the most and least preferred substrate (kcat/Km)” value at PTP99A D1 (PTP99A D1 domain, between Abelson peptide and Insulin Receptor peptides) is approximately 3000 M⁻¹ s⁻¹.

Turning to `CC(C)C[C@H](NC(=O)[C@H](C)NC(=O)CNC(=O)[C@H](Cc1ccc(OP(=O)(O)O)cc1)NC(=O)[C@H](CC(=O)O)NC(=O)[C@@H]1CCCN1C(=O)[C@H](CCC(=O)O)NC(=O)[C@H](C)NC(=O)[C@@H](N)[C@@H](C)O)C(=O)N[C@@H](Cc1ccc(O)cc1)C(=O)N[C@@H](CCC(=O)O)C(=O)O` [Cuticle peptide] (H-TAEPD[pY]GALYE-OH), the figures for the Km on DLAR D1 D2HSS and on DLAR D1 [1] were 162 ± 13.8 µM and 56.5 ± 4.64 µM, respectively. Further, at DLAR D1 [2] (SPR Biacore-2000, 25°C, 10 mM HEPES pH 8.0, 150 mM NaCl, 10 mM DTT, 3 mM EDTA, peptides 50–700 µM, read-out: ka), the kon turned out to be 18.6 ± 1.46 M⁻¹ s⁻¹. In addition, the Kd at DLAR D1 [2] (SPR, 25°C, pH 8.0) was determined as 94.6 ± 0.33 µM.
